Experimental data from ChEMBL document CHEMBL4364241, “Developments in the anticancer activity of structurally modified curcumin: An up-to-date review” (Eur J Med Chem, 2019).

Tests used:
HCT-116 [1] = experiment: Antitumor activity against human HCT116 cells after 72 hrs by FMCA method; type: functional, cell-based; settings: HCT-116, 72 h, pooled result: one value given for 5 cell lines, strains, targets or settings
HepG2 [2] = experiment: Cytotoxicity against human HepG2 Cells after 72 hrs by MTT assay; type: functional, cell-based; settings: HepG2, 72 h
CHO-K1 = experiment: Cytotoxicity against […] Cells after 72 hrs by MTT assay; type: functional, cell-based; settings: Cricetulus griseus, CHO-K1, 72 h
Caco-2 = experiment: Cytotoxicity against human Caco2 Cells after 72 hrs by MTT assay; type: functional, cell-based; settings: Caco-2, 72 h
HT-29 [3] = experiment: Cytotoxicity against human HT-29 Cells after 72 hrs by MTT assay; type: functional, cell-based; settings: HT-29, 72 h
EA.hy 926 = experiment: Cytotoxicity against human EAhy926 Cells after 72 hrs by MTT assay; type: functional, cell-based; settings: EA.hy 926, 72 h
MDA-MB-231 [4] = experiment: Anticancer activity against human MDA-MB-231 cells after 72 hrs by MTT assay; type: functional, cell-based; settings: MDA-MB-231, 72 h
SMMC-7721 = experiment: Anticancer activity against human SMMC7721 cells after 72 hrs by MTT assay; type: functional, cell-based; settings: SMMC-7721, 72 h
[5] = Anticancer activity against human LX2 cells after 72 hrs by MTT assay; type: functional, cell-based; settings: LX-2, 72 h
AGS [6] = experiment: Cytotoxicity against human AGS Cells; type: functional, cell-based
HCT-116 [7] = experiment: Cytotoxicity against human HCT116 Cells; type: functional, cell-based
HepG2 [8] = experiment: Cytotoxicity against human HepG2 Cells; type: functional, cell-based
HeLa = experiment: Cytotoxicity against human HeLa Cells; type: functional, cell-based
HepG2 [9] = experiment: Cytotoxicity against human HepG2 Cells by MTT/Trypan Blue Exclusion Assay; type: functional, cell-based
[10] = Cytotoxicity against mitoxantrone resistant […] cells expressing BCRP after 15 mins by fluorescence assay; type: functional, cell-based; settings: Canis lupus familiaris, MDCK2, 0.25 h
HT-29 [11] = experiment: Cytotoxicity against human HT-29 Cells; type: functional, cell-based
PANC-1 = experiment: Cytotoxicity against human PANC1 cells by MTT assay; type: functional, cell-based
NCI-H460 = experiment: Cytotoxicity against human H460 cells by MTT assay; type: functional, cell-based
MIA PaCa-2 = experiment: Cytotoxicity against human MIAPaCa2 cells by MTT assay; type: functional, cell-based
MCF7 [12] = experiment: Cytotoxicity against human MCF7 cells by MTT assay; type: functional, cell-based
HT-29 [13] = experiment: Cytotoxicity against human HT-29 cells by MTT assay; type: functional, cell-based
A549 [14] = experiment: Cytotoxicity against human A549 Cells by MTT assay; type: functional, cell-based
PC-3 = experiment: Cytotoxicity against human PC3 cells by MTT assay; type: functional, cell-based
MCF7 [15] = experiment: Cytotoxicity against human MCF7 Cells after 48 hrs by MTS assay; type: functional, cell-based; settings: MCF7, 48 h
[16] = Cytotoxicity against human CCD-1059SK Cells after 48 hrs by MTS assay; type: functional
KBM5 = experiment: Growth inhibition of human KBM5 cells relative to control; type: functional
HCT-116 [17] = experiment: Growth inhibition of human HCT116 cells relative to control; type: functional
MCF7 [18] = experiment: Cytotoxicity against human MCF7 Cells after 48 hrs by neutral red dye-based assay; type: functional, cell-based; settings: MCF7, 48 h
AGS [19] = experiment: Cytotoxicity against human AGS Cells by MTT assay; type: functional, cell-based
A549 [20] = experiment: Cytotoxicity against human A549 Cells after 24 hrs by MTT assay; type: functional, cell-based; settings: A549, 24 h
MCF7 [21] = experiment: Cytotoxicity against human MCF7 cells; type: functional, cell-based
MDA-MB-231 [22] = experiment: Cytotoxicity against human MDA-MB-231 cells; type: functional, cell-based
SW-620 = experiment: Cytotoxicity against human SW620 Cells; type: functional, cell-based

`CCCOc1ccc(/C=C2\CN(C(=S)c3ccccc3)C/C(=C\c3ccc(OCCC)c(OC)c3)C2=O)cc1OC` showed an IC50 (HCT-116 [1]) of 0.207 µM.

For `O=C(/C=C(O)/C=C/c1cccnc1)/C=C/c1cccnc1`, the IC50 (HepG2 [2]) was 8.3 µM, the IC50 (CHO-K1) was 7.2 µM and the IC50 (Caco-2) was 6.9 µM. The IC50 (HT-29 [3]) was 8.2 µM and the IC50 (EA.hy 926) was 7.9 µM.

`COc1cc(/C=C/C(=O)CC(=O)/C=C/c2ccc(OC(=O)C(N)CC[Se]C)c(OC)c2)ccc1O` (configuration not stated) showed an IC50 (HepG2 [2]) of 0.31 µM, an IC50 (MDA-MB-231 [4]) of 0.52 µM and an IC50 (SMMC-7721) of 0.18 µM. It also gave an IC50 [5] of 0.62 µM.

For `COc1cc(/C=C/C(=O)CC(=O)/C=C/c2ccc(OC3O[C@H](CO)[C@@H](O)[C@H](O)[C@H]3O)c(OC)c2)ccc1O` (some centres not stated), the IC50 (AGS [6]) was 5.86 µM, the IC50 (HCT-116 [7]) was 5.4 µM and the IC50 (HepG2 [8]) was 18.6 µM. The IC50 (HeLa) was 12.5 µM.

In the case of `COc1cc(CCC2=NC(=S)N=C(CCc3ccc(O)c(OC)c3)C2=Cc2coc3c(OC)c4occc4c(OC)c3c2=O)ccc1O`, the IC50 (HepG2 [9]) is reported as 23 µM.

For `O=C(/C=C(O)/C=C/c1ccc[nH]1)/C=C/c1ccc[nH]1`, the IC50 (HepG2 [2]) was 8.2 µM, the IC50 (CHO-K1) was 6.9 µM and the IC50 (Caco-2) was 7.5 µM. For the same compound, the IC50 (HT-29 [3]) was 8.9 µM and the IC50 (EA.hy 926) was 8.3 µM.

With `COc1cc(F)c(/C=C2\CNC/C(=C\c3cc(OC)c(OC)cc3F)C2=O)cc1OC` the IC50 [10] was 5.2 µM.

In the case of `COc1cc(/C=C/C(=O)CC(=O)/C=C/c2ccc(OC3O[C@H](CO)[C@@H](O)[C@H](O)[C@H]3O)c(OC)c2)ccc1OC1O[C@H](CO)[C@@H](O)[C@H](O)[C@H]1O` (some centres not stated), the IC50 (HT-29 [11]) is reported as 41.6 µM.

`CCOC(OCC)c1ccc(CC2CN(C)CC(Cc3ccc(C(OCC)OCC)cc3)C2=NO)cc1` (configuration not stated) showed an IC50 (PANC-1) of 0.4 µM, an IC50 (NCI-H460) of 0.2 µM and an IC50 (MIA PaCa-2) of 0.4 µM. It also gave an IC50 (MCF7 [12]) of 0.2 µM, an IC50 (HT-29 [13]) of 0.4 µM and an IC50 (A549 [14]) of 0.3 µM. The IC50 (PC-3) was 0.2 µM.

`COc1cc(/C=C/C(=O)N/N=C/c2ccc(O)c(OC)c2)ccc1O` gave an IC50 (MCF7 [15]) of 43 µM and an IC50 [16] of 74.6 µM.

With `COc1cc(/C=C/C(=O)/C=C/c2ccc(OCC(=O)Nc3ccccc3)c(OC)c2)ccc1OCC(=O)Nc1ccccc1` the “growth inhibition (GI)” value (KBM5) was 86.76% and the “growth inhibition (GI)” value (HCT-116 [17]) was 60.13%.

With `COc1ccc(NC(=O)COc2ccc(/C=C/C(=O)/C=C/c3ccc(OCC(=O)Nc4ccc(OC)cc4)c(OC)c3)cc2OC)cc1` the “growth inhibition (GI)” value (KBM5) was 83.63% and the “growth inhibition (GI)” value (HCT-116 [17]) was 57.96%.

Compound `COc1cc(/C=C/C2=NN(c3nc(/N=C4\CC[C@H]5[C@@H]6CC[C@H]7C[C@@H](OC(C)=O)CC[C@]7(C)[C@H]6CC[C@]45C)cc(=O)[nH]3)C(/C=C/c3ccc(O)c(OC)c3)C2)ccc1O` (some centres not stated) has an IC50 (MCF7 [18]) of 18 µM.

Compound `CCCC(=O)Oc1ccc(/C=C2\CN(C(=O)c3ccccc3)C/C(=C\c3ccc(OC(=O)CCC)c(OCC)c3)C2=O)cc1OCC` has an IC50 (HCT-116 [1]) of 0.19 µM.

Compound `COc1cc(/C=C/C(=O)/C(CNc2ccc(S(N)(=O)=O)cc2)=C(O)/C=C/c2ccc(O)c(OC)c2)ccc1O` has an IC50 (AGS [19]) of 10.2 µM and an IC50 (A549 [14]) of 1.29 µM.

`CCCC(=O)Oc1ccc(/C=C2\CN(C(C)=O)C/C(=C\c3ccc(OC(=O)CCC)c(OC)c3)C2=O)cc1OC` showed an IC50 (HCT-116 [1]) of 0.246 µM.

Work on `O=C(/C=C/c1ccccc1C(F)(F)F)/C=C/c1ccccc1C(F)(F)F` yielded an IC50 (A549 [20]) of 3.1 µM.

For `COc1ccc(OC)c(/C=C/C(=O)/C=C/c2cc(OC)ccc2OC)c1`, the IC50 (MCF7 [21]) was 3.02 µM, the IC50 (MDA-MB-231 [22]) was 1.52 µM and the IC50 (HeLa) was 14 µM.

`O=C(/C=C(\O)c1ccccc1)c1ccccc1O` [2',beta-DIHYDROXYCHALCONE] showed an IC50 (SW-620) of 14.5 µM and an IC50 (HT-29 [11]) of 7.5 µM.

`CC/C(=C(\c1ccccc1)c1ccc(OCCN(C)C)cc1)c1ccccc1` [TAMOXIFEN] showed an IC50 (MCF7 [18]) of 4 µM.
